Data: patent publication US20240156902A1, “METHODS OF TREATING NEURODEGENERATIVE DISORDERS WITH INTRANASAL NF-KAPPAB ESSENTIAL MODIFIER (NEMO)-BINDING DOMAIN (NBD) PEPTIDE” (Rush University Medical Center, priority 2021, published 2024)
Where two headings read alike, the source gives them in different places.

What was measured:
[1] = tested on: NF-κB; conditions: cultured brain cells; cited from earlier work
[2] = tested on: NF-κB; conditions: in vivo in the brain; cited from earlier work
[3] = tested on: NF-κB; experiment: NF-κB activation in nigra of PFF-seeded A53T mice (acetylated p65 in microglia); assay type: in vivo, mouse; conditions: intranasal 0.1 mg/kg/d for 1 month
Method: (§1) Following 2 months of surgery, animals received wild type NBD (wtNBD) at a dose of 0.1 mg/kg body weight/day intranasally. After 1 month of wtNBD treatment, behavioral analyses were performed followed by immunohistochemistry and different biochemical experiments.
FIG. 2A and FIG. 2B show the results following intranasal administration of wtNBD peptide inhibiting NF-κB activation in the nigra of PFF-seeded mouse model of Lewy body diseases. A53T transgenic mice were seeded with PFF bilaterally and following 2 months of brain surgery, animals were given intranasal administration of 0.1 mg/kg wtNBD peptide daily. Activation of NF-κB in nigra was monitored by evaluating the level of acetylated (K310) p65 in Ibal+ve microglia in different groups of mice. Marked up-regulation of microglial acetylated p65 level in the SN of PFF-seeded mice was found compared to the PBS-injected mice (FIG. 2A and FIG. 2B). […] Statistical significance was determined by one-way ANOVA followed by Tukey's multiple comparison tests. *p<0.05, ***p<0.001 indicate significance compared to respective groups. Values are given as mean±SEM (n=4 per group). […]
(§2) Following 1 month of wtNBD administration, NF-κB activation in substantia nigra (SN) and spreading of α-syn in both SN and motor cortex were monitored. […]

[4] = tested on: α-syn; experiment: α-syn spreading from striatum to nigra and motor cortex in PFF-seeded A53T mice (pSyn129 immunostaining, α-syn immunoblot); assay type: in vivo, mouse; conditions: intranasal 0.1 mg/kg/d for 1 month
Method: as §1
Propagation of α-syn in PFF-seeded A53T mouse brain was monitored in SN by pSyn129 immunostaining and relative intensity measurement (FIG. 3A, FIG. 3B) and also by immunoblotting total α-syn in Triton X-100 soluble and insoluble fractions (FIG. 3C, FIG. 3D). The ratio of α-syn to actin is shown in the diagrams (FIG. 3E, FIG. 3F). Level of pSyn129 in motor cortex was assessed by immunohistochemistry (FIG. 3G, FIG. 3H). Two sections from each brain were used for immunostaining and pSyn129 specific intensity was analysed by Fiji. One-way ANOVA followed by Tukey's multiple comparison tests was conducted for statistical analyses. **p<0.01, ***p<0.001 indicate significance compared to respective groups. Values are given as mean±SEM (n=4 animals per group).
(§3) The wtNBD peptide (SEQ ID NO: 4) was solubilized in normal saline in such a way so that each mouse receives 0.1 mg/kg of body weight NBD peptide in 2.5 μl of saline. […]
as §2

[5] = tested on: dopaminergic neurons; experiment: Parkinsonian pathology in PFF-seeded A53T mice (TH immunohistochemistry, TH immunoblot, striatal neurotransmitters); assay type: in vivo, mouse; conditions: intranasal 0.1 mg/kg/d for 1 month
Method: (§4) FIG. 4A-L depicts the results following intranasal administration of wtNBD peptide reducing Parkinsonian pathology in PFF-seeded mouse model of Lewy body diseases. PFF-seeded A53T animals were given intranasal administration of 0.1 mg/kg wtNBD peptide daily for one month Parkinsonian pathology was evaluated by TH immunohistochemistry of nigral sections (FIG. 4A), immunoblotting of total TH level in SN (FIG. 4B and FIG. 4C), assessing striatal level of dopamine (DA), and its metabolites 3,4-dihydroxyphenyl acetate (DOPAC), homovanillic acid (HVA) (FIG. 4D-F). Behavioral analyses of animals were performed by open field test (FIG. 4G), where movement parameters such as distance (FIG. 4H), velocity (FIG. 4I), cumulative duration (FIG. 4J) and rearings (FIG. 4K) were recorded. Feet movement was analysed by rotarod test (FIG. 4L). Statistical significance was determined by one-way ANOVA followed by Tukey's multiple comparison tests. *p<0.05, **p<0.01, ***p<0.001 indicate significance compared to respective groups. Values are given as mean±SEM (n=4 per group).
The wtNBD peptide (SEQ ID NO: 4) was solubilized in normal saline in such a way so that each mouse receives 0.1 mg/kg of body weight NBD peptide in 2.5 μl of saline. Then 2.5 μl of wtNBD solution was administered in mice through each nostril every day for a total of 30 days. Mice were hold in supine condition while administering wtNBD solution. See Rangasamy et al. “Selective disruption of TLR2-MyD88 interaction inhibits inflammation and attenuates Alzheimer's pathology” (2018) J Clin Invest 128, 4297-4312. Intranasal treatment was started for preformed α-syn fibril (PFF) or PBS injected A53T animals at the age of 5 months (2 months following the brain surgery) for the next 30 days. Aged A53T animals (8 months old) were also treated with wtNBD peptides for 1 month followed by behavioural tests and other experiments at the age of 9 months.
Next, the effect of intranasal wtNBD on PFF-induced Parkinsonian pathologies was monitored. […] Locomotor deficit was also evident by rotarod analysis (FIG. 4L).

[6] = tested on: PFF-seeded A53T transgenic mice; experiment: Locomotor activities of PFF-seeded A53T mice (open field test, rotarod); assay type: in vivo, mouse; conditions: intranasal 0.1 mg/kg/d for 1 month
Method: as §4, §3
Next, the effect of intranasal wtNBD on PFF-induced Parkinsonian pathologies was monitored. […]

[7] = in vivo; cited from earlier work

Substance	block of the function of NF-κB [1]	block of the function of NF-κB [2]	microglial acetylated (K310) p65 level in the SN [3]	level of pSyn129 in nigral neurons (relative optical density in SN) ([4]; PFF-seeded A53T mice)	accumulation of pSyn129 in cortical neurons (motor cortex) ([4]; compared to saline-treated PFF-seeded mice)	nigral TH neurons [5]	nigral TH protein level [5]	striatal DA level [5]	movement deficits (open field distance, velocity, cumulative duration, rearing; rotarod) [6]	entry into the brain [7]
LDWSWL [truncated hexapeptide of the wtNBD]	sufficient to block	sufficient to block								
DRQIKIWFQNRRMKWKKLDWSWL (DRQIKWFQNRRMKWKKLDWSWL) [wtNBD]			significantly decreased	drastically reduced	reduced accumulation	significantly protected	significantly protected	significantly protected	significantly inhibited	enters into the brain
